Where two headings read alike, the source gives them in different places.

Data on two molecules can be found in patent US7202081B2, “Simultaneous determination of cell proliferation inhibition activity and toxicity” (Hoffmann-La Roche Inc., priority 2003, dated 2007).

This series has as its system Human cord blood CD34+ cells. As to the kind of experiment: cells. As to conditions: for proliferation inhibition: CD34 cells, cell number, FIG. 3, concentration range for which the percentage of dead cells is stated; for IC50: Homo sapiens, cytokine stimulated CD34 cells; for percentage of dead cells to total cells: human. It is filed as cell-based. As to the method: Human cord blood CD34+ cells were isolated to high purity (>90%) by immunomagnetic cell sorting, aliquoted and frozen in DMSO containing medium. For cell culture setup, frozen CD34+ cells were thawed and 200 cells were seeded in 200 μl complete medium of a well of a 96 well plate. The basal cell culture medium consisted of IMDM-Medium supplemented with 20% human AB serum and antibiotics (pen/strep). The CD34+ cells were activated by addition of following cytokine cocktail: hu-SCF (100 ng/ml), hu-IL6 (10 ng/ml), hu-GM-CSF (100 U/ml), hu-TPO (25 ng/ml) and hu-EPO (5 U/ml). Cultivation was performed in incubators at 37° C., high humidity and 7% CO2.
Two different experimental setup were used: 1) addition of the inhibitor compound prior supplementation of the medium with cytokines to hit preferentially resting cells, and 2) addition of inhibitor compound 4 days after CD34 activation with cytokines to hit preferentially activated cells.
Dependent on the proliferation rate of the CD34+ cells, harvest and analysis of cell number and cytotoxicity was performed after 9–10 d cell culture. The cell number and cytotoxicity was analysed by FACS technique. The number of cells present in the well was counted by comparison with an internal bead standard. A aliquot of 10000 beads was added to each well harboring 200 μl medium volume FLUOSPHERES® polystyrene, 15 μm; Molecular Probes).
A gate, shown as rectangular region, was set onto the standard beads, a distinct number was counted, analysis was stopped and the corresponding volume of medium containing cells was calculated. […] The viable cells appear again in the middle/right position of the forward scatter (FSC) displaying low/no propidium iodide labeling. The few dead cells appear left or in the upper/left position relative to viable cell population. The FACS measurement took an aliqout count of the beads and calculated the number of cells being present within the well, whereas the cytotoxicity, the number of dead cells, was recorded in parallel during this measurement (addition of propidium iodide; final concentration 1 μg/ml). […] At the highest inhibitory and cytotoxic concentration very few cells were present anymore in the viable cell cluster and the majority of cells had been killed as evident by increased PI staining or fragmentation (panel H).
A typical example of the calculation of the number of CD34 cells and percentage of dead cells in a well is shown in FIG. 3 for two cytotoxic compounds, namely 5-fluorouracil and doxorubicine. […] The increase of the percentage of dead cells obtained from the analysis of the PI positive cell fraction (FIG. 2 panels E to H) is shown as solid line.

As a reminder, the IC50 is the concentration that gives 50% inhibition. `O=c1[nH]cc(F)c(=O)[nH]1` [5-fluorouracil]: the proliferation inhibition entry is “more than 50%” and the “percentage of dead cells to total cells” value is 0-25%. Moreover, the IC50 (240 h, 9–10 d culture, FACS count against bead standard, tested 0.1–100 μmol/l, read-out: IC50 value for the cell number analysis) is 340 nM.

On to `COc1cccc2c1C(=O)c1c(O)c3c(c(O)c1C2=O)C[C@@](O)(C(=O)CO)C[C@@H]3O[C@H]1C[C@H](N)[C@H](O)[C@H](C)O1` [doxorubicine], for which the proliferation inhibition result is reported as “about 80%” and the “percentage of dead cells to total cells” value is recorded as around 40%. Besides, under “240 h, 9–10 d culture, FACS count against bead standard, tested 1–1000 ng/ml, read-out: IC50 value (cell number) from IC50 calculation program”, the IC50 was 0.67 ng/mL. In addition, where the note is “FIG. 3 legend, tested 1–1000 ng/ml, read-out: IC50 value for the cell number analysis”, the IC50 is 0.67 ng/mL.
